Experimental data as given in US20230165884A1, “METHOD AND COMPOSITION FOR TREATING ALZHEIMERS” (Cognitive Synergy Corporation, priority 2021, published 2023).

Experiments:
[1] = molecular target: T1, Aβ1-42 protein (Homo sapiens, UniProt P05067); test: Percentage of Aβ1-42 protein fibrillization by ThT fluorescence (FIG. 18, 19); format: biochemical; parameters: percentage of Aβ fibrillization compared to the control: unit of the concentration uncertain; conditions: for effect on Aβ protein aggregation and/or tau protein accumulation: incubated with Aβ1-42 for 24 hours at 37° C.
T1 construct: aggregated amyloid beta 1-42 (Aβ1-42)
Procedure: FIG. 18 is an analysis showing a percentage of Aβ1-42 protein fibrillization using thioflavin T (ThT) florescence in various samples. The sample on the left is a control of Aβ1-42 protein. […] The third sample from the left is Aβ protein treated with 10 mM Aconitine. And the fourth sample from the left is Aβ1-42 protein treated with 20 mM Aconitine.
FIG. 19 is an analysis showing an amount of Aβ1-42 protein fibrillization using thioflavin T (ThT) fluorescence in various samples. The sample on the left is a control of Aβ1-42 protein. The second sample from the left is Aβ1-42 protein treated with 200 mM of bergenin. The third sample from the left is Aβ1-42 protein treated with 300 mM bergenin.
The various compounds were incubated with Aβ1-42 for 24 hours at 37° C. to determine the effect of compounds on defibrillation. Further, testing was done to determine an effect of the compounds on tau protein.
Referring to FIG. 18, FIG. 18 is a bar graph 1800 showing a percentage of Aβ protein fibrillization in various samples. The sample on the left is a control 1805 of Aβ protein. […] The third sample 1815 from the left is Aβ protein treated with 10 mM aconitine. And the fourth sample 1820 from the left is Aβ protein treated with 20 mM aconitine.
The intensity for the control 1805 is normalized to 100.
The third sample 1815 includes a concentration of 10 mM aconitine. […] The fourth sample 1820 includes a concentration of 20 mM aconitine.
Referring to FIG. 19, FIG. 19 is a bar graph 1900 showing an amount of Aβ protein in various samples. The sample on the left is a control 1905 of Aβ protein. The second sample 1910 from the left is Aβ protein treated with 200 mM bergenin. The third sample 1915 from the left is Aβ protein treated with 300 mM bergenin.
The control 1905 on the left side of the bar graph 1900, which just contains Aβ protein is normalized to 100. The measurement of the percentage of the Aβ protein in the control 1905 that aggregates into Aβ fibrils is compared against solutions containing bergenin.
The second sample 1910 contains 200 mM bergenin. […] The third sample 1915 contained 300 mM bergenin.

[2] = molecular target: T2, Aβ (Homo sapiens, UniProt P05067); test: Fibrillization assay of various compositions (FIG. 28); format: biochemical; conditions: control 100% fibrillization
T2 construct: aggregated amyloid beta 1-42 (Aβ1-42)
Procedure: (§1) Orientin, vitexin, and bergenin were detected as possible targets based on identification via Liquid Chromatography—mass Spectrometry (LC-MS) from Synaptecx-227 and verified via mass spectrometric (MS) analysis. Aβ1-42 defibrillation analysis and Aβ1-42 cell survival were performed for various combinations of the above identified targets.
The sample treated with a 20 micromolar concentration of orientin, 20 micromolar concentration of vitexin, and 50 micromolar concentration of bergenin decreased Aβ fibrillization by 48.9989% (p value<0.0001 ****).

[3] = system: neurons with Aβ treatment; test: Cell survival assay of various compositions (FIG. 29); format: cell-based; conditions: Aβ control 61.7592%
Procedure: as §1
In the control sample with Aβ treatment, the % of surviving neurons is 61.7592% (p value<0.0001 ****).

T2 sequence (P05067 672-713): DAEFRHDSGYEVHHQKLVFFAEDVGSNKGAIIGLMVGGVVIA
T1 sequence (P05067 672-713): as above

Molecule	effect on Aβ protein aggregation and/or tau protein accumulation [1]	decrease of Aβ fibrillization ([2]; 20 micromolar) [%]	cell survival ([3]; 20 micromolar) [%]	further results
CCN1C[C@]2(COC)[C@H](O)C[C@H](OC)[C@@]34[C@@H]5C[C@@]6(O)[C@H](OC(=O)c7ccccc7)[C@@H]5[C@@](OC(C)=O)([C@@H]([C@H](OC)[C@H]23)[C@@H]14)[C@@H](O)[C@@H]6OC [aconitine]	reducing a percentage of Aβ protein aggregation as compared to a control and/or reducing a percentage of tau protein accumulation as compared to a control	–	–	percentage of Aβ fibrillization compared to the control ([1]; 10 (unit uncertain)): 82.0%; percentage of Aβ fibrillization compared to the control ([1]; 20 (unit uncertain)): 74.8%
O=c1cc(-c2ccc(O)cc2)oc2c([C@@H]3O[C@H](CO)[C@@H](O)[C@H](O)[C@H]3O)c(O)cc(O)c12 [vitexin]	–	28.8579	73.4208	–
O=C(N[C@@H](Cc1ccccc1)C(=O)N[C@H](CO)Cc1ccccc1)c1ccccc1 [aurantiamide]	–	24.8578	–	cell survival ([3]; 10 micromolar): 71.5173%
swatinine	reducing a percentage of Aβ protein aggregation as compared to a control and/or reducing a percentage of tau protein accumulation as compared to a control	–	–	–
COc1c(O)cc2c(c1O)[C@@H]1O[C@H](CO)[C@@H](O)[C@H](O)[C@H]1OC2=O [bergenin]	reducing a percentage of Aβ protein aggregation as compared to a control and/or reducing a percentage of tau protein accumulation as compared to a control	–	–	decrease of Aβ fibrillization ([2]; 50 micromolar): 31.9532%; cell survival ([3]; 50 micromolar): 76.2308%
O=c1cc(-c2ccc(O)c(O)c2)oc2c([C@@H]3O[C@H](CO)[C@@H](O)[C@H](O)[C@H]3O)c(O)cc(O)c12 [orientin]	–	29.2843	77.8195	–
